Source: PubChem BioAssay (NCI)
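Exposure lasted 48 hours, with cells grown in 96-well plates and compounds tested at five concentrations. GI50 is the concentration that inhibits growth by half. TGI: concentration producing complete growth inhibition.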

What was measured:
Test in all cases: NCI-60 cell line screen, 48 h
786-0 renal = system: 786-0 renal
A549 NSCLC = system: A549 NSCLC
ACHN renal = system: ACHN renal
CAKI-1 renal = system: CAKI-1 renal
CCRF-CEM leukemia = system: CCRF-CEM leukemia
COLO 205 colon = system: COLO 205 colon
DU-145 prostate = system: DU-145 prostate
EKVX NSCLC = system: EKVX NSCLC
HCC-2998 colon = system: HCC-2998 colon
HCT-116 colon = system: HCT-116 colon
HCT-15 colon = system: HCT-15 colon
HOP-62 NSCLC = system: HOP-62 NSCLC
HOP-92 NSCLC = system: HOP-92 NSCLC
HS 578T breast = system: HS 578T breast
HT29 colon = system: HT29 colon
IGROV1 ovarian = system: IGROV1 ovarian
K-562 leukemia = system: K-562 leukemia
KM12 colon = system: KM12 colon
LOX IMVI melanoma = system: LOX IMVI melanoma
M14 melanoma = system: M14 melanoma
MALME-3M melanoma = system: MALME-3M melanoma
MCF7 breast = system: MCF7 breast
MDA-MB-231 breast = system: MDA-MB-231 breast
MDA-MB-435 = system: MDA-MB-435
MOLT-4 leukemia = system: MOLT-4 leukemia
NCI-H226 lung = system: NCI-H226 lung
NCI-H23 lung = system: NCI-H23 lung
NCI-H460 lung = system: NCI-H460 lung
NCI-H522 lung = system: NCI-H522 lung
NCI/ADR-RES ovarian = system: NCI/ADR-RES ovarian
OVCAR-3 ovarian = system: OVCAR-3 ovarian
OVCAR-5 ovarian = system: OVCAR-5 ovarian
OVCAR-8 ovarian = system: OVCAR-8 ovarian
PC-3 prostate = system: PC-3 prostate
RPMI-8226 leukemia = system: RPMI-8226 leukemia
SF-268 CNS = system: SF-268 CNS
SF-295 CNS = system: SF-295 CNS
SK-MEL-2 melanoma = system: SK-MEL-2 melanoma
SK-MEL-28 melanoma = system: SK-MEL-28 melanoma
SK-MEL-5 melanoma = system: SK-MEL-5 melanoma
SK-OV-3 ovarian = system: SK-OV-3 ovarian
SN12C renal = system: SN12C renal
SNB-19 CNS = system: SNB-19 CNS
SR leukemia = system: SR leukemia
SW-620 colon = system: SW-620 colon
T-47D breast = system: T-47D breast
TK-10 renal = system: TK-10 renal
U251 CNS = system: U251 CNS
UACC-257 melanoma = system: UACC-257 melanoma
UACC-62 melanoma = system: UACC-62 melanoma
UO-31 renal = system: UO-31 renal

Q: With `C/C(=N\n1c(O)c(C#N)cc(C#N)c1=O)c1ccncc1` as the compound, how does the GI50 (786-0 renal) read?
A: > 100 µM

Q: What about the TGI (786-0 renal) of the same compound?
A: > 100 µM

Q: And the GI50 (A549 NSCLC)?
A: > 100 µM

Q: And the TGI (A549 NSCLC)?
A: > 100 µM

Q: And the GI50 (ACHN renal)?
A: > 100 µM

Q: What about the TGI (ACHN renal) of the same compound?
A: > 100 µM

Q: And the GI50 (CAKI-1 renal)?
A: > 100 µM

Q: And the TGI (CAKI-1 renal)?
A: > 100 µM

Q: What about the GI50 (CCRF-CEM leukemia) of the same compound?
A: > 100 µM

Q: And the TGI (CCRF-CEM leukemia)?
A: > 100 µM

Q: And the GI50 (COLO 205 colon)?
A: > 100 µM

Q: And the TGI (COLO 205 colon)?
A: > 100 µM

Q: And the GI50 (DU-145 prostate)?
A: > 100 µM

Q: And the TGI (DU-145 prostate)?
A: > 100 µM

Q: What about the GI50 (EKVX NSCLC) of the same compound?
A: > 100 µM

Q: What about the TGI (EKVX NSCLC) of the same compound?
A: > 100 µM

Q: What about the GI50 (HCC-2998 colon) of the same compound?
A: > 100 µM

Q: And the TGI (HCC-2998 colon)?
A: > 100 µM

Q: What about the GI50 (HCT-116 colon) of the same compound?
A: > 100 µM

Q: And the TGI (HCT-116 colon)?
A: > 100 µM

Q: What about the GI50 (HCT-15 colon) of the same compound?
A: > 100 µM

Q: What about the TGI (HCT-15 colon) of the same compound?
A: > 100 µM

Q: What about the GI50 (HOP-62 NSCLC) of the same compound?
A: > 100 µM

Q: And the TGI (HOP-62 NSCLC)?
A: > 100 µM

Q: And the GI50 (HOP-92 NSCLC)?
A: > 100 µM

Q: And the TGI (HOP-92 NSCLC)?
A: > 100 µM

Q: What about the GI50 (HS 578T breast) of the same compound?
A: > 100 µM

Q: And the TGI (HS 578T breast)?
A: > 100 µM

Q: And the GI50 (HT29 colon)?
A: > 100 µM

Q: What about the TGI (HT29 colon) of the same compound?
A: > 100 µM

Q: And the GI50 (IGROV1 ovarian)?
A: > 100 µM

Q: What about the TGI (IGROV1 ovarian) of the same compound?
A: > 100 µM

Q: What about the GI50 (K-562 leukemia) of the same compound?
A: > 100 µM

Q: And the TGI (K-562 leukemia)?
A: > 100 µM

Q: What about the GI50 (KM12 colon) of the same compound?
A: > 100 µM

Q: And the TGI (KM12 colon)?
A: > 100 µM

Q: And the GI50 (LOX IMVI melanoma)?
A: > 100 µM

Q: And the TGI (LOX IMVI melanoma)?
A: > 100 µM

Q: And the GI50 (M14 melanoma)?
A: > 100 µM

Q: And the TGI (M14 melanoma)?
A: > 100 µM

Q: And the GI50 (MALME-3M melanoma)?
A: > 100 µM

Q: What about the TGI (MALME-3M melanoma) of the same compound?
A: > 100 µM

Q: And the GI50 (MCF7 breast)?
A: > 100 µM

Q: What about the TGI (MCF7 breast) of the same compound?
A: > 100 µM

Q: What about the GI50 (MDA-MB-231 breast) of the same compound?
A: > 100 µM

Q: What about the TGI (MDA-MB-231 breast) of the same compound?
A: > 100 µM

Q: What about the GI50 (MDA-MB-435) of the same compound?
A: > 100 µM

Q: And the TGI (MDA-MB-435)?
A: > 100 µM

Q: And the GI50 (MOLT-4 leukemia)?
A: > 100 µM

Q: And the TGI (MOLT-4 leukemia)?
A: > 100 µM

Q: And the GI50 (NCI-H226 lung)?
A: > 100 µM

Q: And the TGI (NCI-H226 lung)?
A: > 100 µM

Q: And the GI50 (NCI-H23 lung)?
A: > 100 µM

Q: What about the TGI (NCI-H23 lung) of the same compound?
A: > 100 µM

Q: What about the GI50 (NCI-H460 lung) of the same compound?
A: > 100 µM

Q: And the TGI (NCI-H460 lung)?
A: > 100 µM

Q: And the GI50 (NCI-H522 lung)?
A: > 100 µM

Q: And the TGI (NCI-H522 lung)?
A: > 100 µM

Q: And the GI50 (NCI/ADR-RES ovarian)?
A: > 100 µM

Q: And the TGI (NCI/ADR-RES ovarian)?
A: > 100 µM

Q: And the GI50 (OVCAR-3 ovarian)?
A: > 100 µM

Q: And the TGI (OVCAR-3 ovarian)?
A: > 100 µM

Q: What about the GI50 (OVCAR-5 ovarian) of the same compound?
A: > 100 µM

Q: And the TGI (OVCAR-5 ovarian)?
A: > 100 µM

Q: And the GI50 (OVCAR-8 ovarian)?
A: > 100 µM

Q: What about the TGI (OVCAR-8 ovarian) of the same compound?
A: > 100 µM

Q: And the GI50 (PC-3 prostate)?
A: > 100 µM

Q: What about the TGI (PC-3 prostate) of the same compound?
A: > 100 µM

Q: And the GI50 (RPMI-8226 leukemia)?
A: > 100 µM

Q: And the TGI (RPMI-8226 leukemia)?
A: > 100 µM

Q: What about the GI50 (SF-268 CNS) of the same compound?
A: > 100 µM

Q: And the TGI (SF-268 CNS)?
A: > 100 µM

Q: What about the GI50 (SF-295 CNS) of the same compound?
A: > 100 µM

Q: What about the TGI (SF-295 CNS) of the same compound?
A: > 100 µM

Q: And the GI50 (SK-MEL-2 melanoma)?
A: > 100 µM

Q: What about the TGI (SK-MEL-2 melanoma) of the same compound?
A: > 100 µM

Q: What about the GI50 (SK-MEL-28 melanoma) of the same compound?
A: > 100 µM

Q: What about the TGI (SK-MEL-28 melanoma) of the same compound?
A: > 100 µM

Q: What about the GI50 (SK-MEL-5 melanoma) of the same compound?
A: > 100 µM

Q: And the TGI (SK-MEL-5 melanoma)?
A: > 100 µM

Q: What about the GI50 (SK-OV-3 ovarian) of the same compound?
A: > 100 µM

Q: And the TGI (SK-OV-3 ovarian)?
A: > 100 µM

Q: And the GI50 (SN12C renal)?
A: > 100 µM

Q: And the TGI (SN12C renal)?
A: > 100 µM

Q: And the GI50 (SNB-19 CNS)?
A: > 100 µM

Q: What about the TGI (SNB-19 CNS) of the same compound?
A: > 100 µM

Q: And the GI50 (SR leukemia)?
A: > 100 µM

Q: And the TGI (SR leukemia)?
A: > 100 µM

Q: And the GI50 (SW-620 colon)?
A: > 100 µM

Q: What about the TGI (SW-620 colon) of the same compound?
A: > 100 µM

Q: And the GI50 (T-47D breast)?
A: > 100 µM

Q: And the TGI (T-47D breast)?
A: > 100 µM

Q: And the GI50 (TK-10 renal)?
A: > 100 µM

Q: What about the TGI (TK-10 renal) of the same compound?
A: > 100 µM

Q: What about the GI50 (U251 CNS) of the same compound?
A: > 100 µM

Q: What about the TGI (U251 CNS) of the same compound?
A: > 100 µM

Q: What about the GI50 (UACC-257 melanoma) of the same compound?
A: > 100 µM

Q: And the TGI (UACC-257 melanoma)?
A: > 100 µM

Q: What about the GI50 (UACC-62 melanoma) of the same compound?
A: > 100 µM

Q: What about the TGI (UACC-62 melanoma) of the same compound?
A: > 100 µM

Q: And the GI50 (UO-31 renal)?
A: > 100 µM

Q: And the TGI (UO-31 renal)?
A: > 100 µM
